Experimental data: patent publication US10953042B2, “Vanadium insulin-mimetics, methods of preparation, and methods for treatment of diabetes” (The University of Trinidad and Tobago, priority 2017, dated 2021)
Where two headings read alike, the source gives them in different places.

Columns and labels:
[1] = free state; cited from earlier work
[2] = test system: STZ-induced diabetic rats; settings: for blood glucose level: 75 mg/kgbw intraperitoneal once every five days
Procedure: Healthy adult male albino Rattus norvegicus Wistar rats, weighing 170-200 g were procured from Sri Raghavendra Enterprises, Bangalore, Karnataka, India. Studies were conducted in accordance with the guidance for the care and standard experimental animal ethical protocols. Animals were acclimated for a week, maintained at room temperature of 25±2° C. with 12-h dark-light cycle and given tap water and a standard rodent pellet diet ad libitum.
Six (6) groups with six rats each were used. Group I consisted of control animals and diabetes was induced in 12 hour fasted rats in Groups II-VI by a single intraperitoneal 60 mg/kgbw dose of STZ dissolved in freshly prepared 0.1 mol/L citrate buffer (pH 4.5). Blood samples obtained by sequential snipping of the tail and blood glucose levels measured using an ACCU-CHECK® glucometer on a daily basis. […] Group II became the positive control.
The dose-response of the drug was monitored for a period of 30 and 90 days using differential grades of drug at doses of 1, 10, 25, 50, 75, and 100 mg/kgbw administered once every five days. On the fifth day after the first administration, blood was collected and blood glucose levels measured using an ACCU-CHECK® glucometer. Subsequently each group was given its respective second and subsequent doses through intraperitoneal injection.
(§1) The following values were determined spectrophotometrically: (a) daily blood glucose levels (via Accu-check glucometer kit, Roche Diagnostics India); (b) hepatic glycogen (see Seifter et al., (1950) Arch Biochem 25(1):191-200); (c) glycosylated hemoglobin (see Sudhakar and Pattabiraman (1981) Clin Chim Acta 109:267-274); (d) blood urea nitrogen (BUN); (e) serum creatinine (see Hare (1950) Proc Soc Exp Biol Med 74:148-151); and (f) hepatic enzymes (AST, ALT) (see Reitman and Frankel (1957) Am J Clin Pathol 28:56-63).
(§2) Biostatistical analysis was conducted using SPSS 20.0 software. Analysis of variance (one-way ANOVA) was performed with the Tukey HSD post hoc test.

[3] = test system: STZ induced diabetic mice
Procedure: Streptozotocin (STZ; 2-deoxy-2-(3-methyl-3-nitrosoureido)-D-glucopyranose), a diabetogenic agent having the ability to induce pancreatic β-cell toxicity, is one of the chemicals used worldwide to induce diabetes in a simple and convenient method.
Adult albino mice, Mus musculus, three months old, weighing 30±5 g were procured from Sri Raghavendra Enterprises, Bangalore and acclimatized to laboratory conditions (12:12 hr dark/light, 25±2° C.) for one week. During acclimatization and thereafter, mice were maintained on standard rodent pellet and tap water ad libitum in accordance with ethical guidelines for animal care and experimentation.
Six (6) groups with six mice each were used. […] Group II became the positive control. […] On the fifth day after the first administration, blood was collected by tail pricking and blood glucose levels measured using an ACCU-CHECK® glucometer on a daily basis. Subsequently each group was given its respective second and subsequent doses through intraperitoneal injection.

[4] = test system: STZ-induced diabetic rats; settings: for blood glucose levels: 100 mg/kgbw oral once every five days
Procedure: as §1, §2
The dose-response of the drug was monitored for a period of 30 and 90 days using drug doses of 100 and 200 mg/kgbw administered once every five days. Spectrophotometric measurements and statistical analysis were obtained as in Example 2.

Molecule	toxicity [1]	blood glucose level ([2]; after 30 days) [mg/dL]	blood glucose level ([2]; three months (90 days), P<0.05) [mg/dL]	insulin levels ([2]; 75 mg/kgbw intraperitoneal, compared to the control (FIG. 24))	glycogen level ([2]; 75 mg/kgbw intraperitoneal, day 30, hepatic glycogen) [mg/g tissue]	glycogen level ([2]; 75 mg/kgbw intraperitoneal, day 90, hepatic glycogen) [mg/g tissue]	hyperglycemic condition ([3]; 250 mg/kgbw intraperitoneal, 30 days, data not shown)	blood glucose level ([3]; 250 mg/kgbw intraperitoneal, multiple doses once every 5 days)	blood glucose level ([3]; the other doses (50, 150, 300 mg/kgbw) intraperitoneal)	blood glucose levels ([4]; day 30) [mg/dL]	blood glucose levels ([4]; day 90) [mg/dL]	glycogen levels ([4]; oral (FIG. 18))	insulin levels ([4]; oral, compared to the control (FIG. 25))
O=C(O)c1cccc(C(=O)O)n1 [dipicolinic acid, Pyridine-2,6-dicarboxylic acid]	nontoxic												
(Diaqua)(2,6-pyridine diacetyl-carboxylato)oxovanadium(IV) [Complex 1]		135	118.7	significantly reducing insulin levels as compared to the control	2.01	2.00	reduced the hyperglycemic condition in a steady state for a period of 30 days	stable and sustainable blood glucose level throughout the study	irregularity in maintaining the reduced levels	108	102	significant effect on increasing the glycogen levels	significant reduction in insulin levels as compared to the control
